Assay [1] concerns compound 48/80-induced lethality. The assay is described as follows: Protection of rats from compound 48/80-induced lethality. In kind it is in vivo, Male rats of an inbred Wistar strain. The conditions noted are these: Rattus norvegicus, 4 h, read-out: compound 48/80 lethality test rats-ED50. The protocol:
Protection of rats from compound 48/80-induced lethality
The protection from compound 48/80-induced lethal circulatory collapse appears to be a simple way of evaluating quantitatively the antihistaminic activity of test compounds. Male rats of an inbred Wistar strain, weighing 240-260 g were used in the experiment. After overnight starvation the rats were transferred to conditioned laboratories (temp.=21±1° C., relative humidity-65±5%).
The rats were treated subcutaneously or orally with a test compound or with the solvent (NaCl solution, 0.9%). […] Survival after 4 hours is therefore considered to be a safe criterion of a protective effect of drug administration.
The ED50 -values of the compounds of formula (I) and the intermediates of formula (XVIII) are listed in the first column of table 1 and table 2. Said ED50 -values are the values in mg/kg body weight at which the tested compounds protect 50% of the tested animals against compound 48/80-induced lethality.

The subject of assay [2] is serotonin; compound 48/80-induced gastric lesions. The assay is described as follows: Antagonistic activity on the effects of serotonin in the gastric lesion test (lesions induced by compound 48/80). The assay is classed as in vivo, Male rats of a Wistar inbred strain. The conditions noted are these: Rattus norvegicus, po; read-out: gastric lesion test ED50. The procedure: Antagonistic activity on the effects of serotonin in the gastric lesion test
Male rats of a Wistar inbred strain, weighing 220-250 g, were starved overnight, water being available ad libitum. The test compounds were administered orally as a solution or as a suspension in aqueous medium. A control rat and a "blank" rat received the test compound. One hour later 5-[4-(diphenylmethyl)-1-piperazinylmethyl]-1-methyl-1H-benzimidazole-2-methanol was administered subcutaneously to all rats at the dose of 2.5 mg/kg.
Four hours after the intravenous injection of compound 48/80, the rats were decapitated and the stomachs were removed. Subsequently the stomachs were inspected for distension and contents (blood, fluid, food) and thoroughly rinsed. The macroscopic lesions were scored from 0 to +++, 0 corresponding to complete absence of visible lesions and the highest score corresponding to reddish rough patches covering more than half the glandular area.

In assay [3] the test system is compound 48/80-induced cyanosis, lesions in the glandular area of the stomach and abnormal gastric distension. The note with it: rats injected with compound 48/80; cited from earlier work.

Take `O=C(O)/C=C/C(=O)O.O=C(O)/C=C/C(=O)O.c1cnc(OCCN2CCC(Nc3nc4ccccc4n3Cc3ccco3)CC2)nc1` [Compound 83, 1-(2-furanylmethyl)-N-[1-[2-(2-pyrimidinyloxy)ethyl]-4-piperidinyl]-1H-benzimidazol-2-amine (E)-2-butenedioate (1:2)]: the ED50 in assay [1] worked out at 0.08 mg/kg; in assay [2], 1.25 mg/kg.

For `Fc1ccc(Cn2c(NC3CCN(CCOCc4ccccn4)CC3)nc3ccccc32)cc1.O=C(O)/C=C/C(=O)O.O=C(O)/C=C/C(=O)O` [Compound 84, 1-[(4-fluorophenyl)methyl]-N-[1-[2-(2-pyridinylmethoxy)ethyl]-4-piperidinyl]-1H-benzimidazol-2-amine (E)-2-butenedioate (1:2)], the ED50 was found to be 0.08 mg/kg in assay [1] and 2.5 mg/kg in assay [2]. Taken in the same sequence, the figures for `O.O=c1nc(NCCN2CCC(Nc3nc4ccccc4n3Cc3ccc(F)cc3)CC2)[nH]cc1Cc1ccc(Cl)cc1` [Compound 85, 5-[(4-chlorophenyl)methyl]-2-[[2-[4-[[1-[(4-fluorophenyl)methyl]-1H-benzimidazol-2-yl]amino]-1-piperidinyl]ethyl]amino]-4(1H)-pyrimidinone monohydrate] were 1.25 mg/kg and 2.5 mg/kg. Turning to `CCCc1cc(O)nc(NCCN2CCC(Nc3nc4ccccc4n3Cc3ccc(F)cc3)CC2)n1` [Compound 86, 2-[[2-[4-[[1-[(4-fluorophenyl)methyl]-1H-benzimidazol-2-yl]amino]-1-piperidinyl]ethyl]amino]-6-propyl-4-pyrimidinol], the values for the ED50 in assay [1] and in assay [2] were 0.31 mg/kg and 2.5 mg/kg, respectively. The like results for `O=c1ccnc(NCCN2CCC(Nc3nc4ccccc4n3Cc3ccc(F)cc3)CC2)[nH]1` [Compound 87] were, in that order, 0.08 mg/kg and 0.63 mg/kg. In the case of `O=c1nc(NCCN2CCC(Nc3nc4ccccc4n3Cc3ccc(F)cc3)CC2)[nH]c2ccccc12` [Compound 88, 2-[[2-[4-[[1-[(4-fluorophenyl)methyl]-1H-benzimidazol-2-yl]amino]1-piperidinyl]ethyl]amino]-4(1H)-quinazolinone], the ED50 came to 0.63 mg/kg in assay [1] and 2.5 mg/kg in assay [2].

As to `Cc1cc(=O)[nH]c(NCCN2CCC(Nc3nc4ccccc4n3Cc3ccc(F)cc3)CC2)n1` [Compound 90], the ED50 in assay [1] was determined as 0.16 mg/kg; in assay [2] it was 0.63 mg/kg. The like results for `Fc1ccc(Cn2c(NC3CCN(CCSc4ncccn4)CC3)nc3ccccc32)cc1` [Compound 91, 1-[(4-fluorophenyl)methyl]-N-[1-[2-(2-pyrimidinylthio)ethyl]-4-piperidinyl]-1H-benzimidazol-2-amine] were, in that order, 0.16 mg/kg and 0.16 mg/kg.

On to `O.O=c1nc(SCCN2CCC(Nc3nc4ccccc4n3Cc3ccc(F)cc3)CC2)[nH]c2ccccc12` [Compound 92, 2-[2-[4-[[1-[(4-fluorophenyl)methyl]-1H-benzimidazol-2-yl]amino]-1-piperidinyl]ethylthio]-4(1H)-quinazolinone monohydrate], for which the ED50 in assay [1] is 0.31 mg/kg; in assay [2], 2.5 mg/kg. Taken in the same sequence, the figures for `Cl.Cl.Cl.Nc1cccnc1NCCN1CCC(Nc2nc3ccccc3n2Cc2ccc(F)cc2)CC1` [Compound 93, N^2-[2-[4-[[1-[(4-fluorophenyl)methyl] -1H-benzimidazol-2-yl]amino]-1-piperidinyl]ethyl]-2,3-pyridinediamine trihydrochloride] were 0.08 mg/kg and 0.31 mg/kg.

Regarding `Fc1ccc(Cn2c(NC3CCN(CCNc4ccncn4)CC3)nc3ccccc32)cc1` [Compound 94, 1-[(4-fluorophenyl)methyl]-N-[1-[2-(4-pyrimidinylamino)ethyl]-4-piperidinyl]-1H-benzimidazol-2-amine hemihydrate], the values for the ED50 in assay [1] and in assay [2] were 0.08 mg/kg and 1.25 mg/kg, respectively. As for `Nc1cncnc1NCCN1CCC(Nc2nc3ccccc3n2Cc2ccc(F)cc2)CC1` [Compound 96, N^4-[2-[4-[[1-[(4-fluorophenyl)methyl]-1H-benzimidazol-2-yl]amino]-1-piperidinyl]ethyl]-4,5-pyrimidinediamine], the results for the ED50 in assay [1] and in assay [2] were 0.08 mg/kg and 0.02 mg/kg, respectively.

As to `Fc1ccc(Cn2c(NC3CCN(C4CCN(c5ccccn5)CC4)CC3)nc3ccccc32)cc1` [Compound 97, N-[1-[(4-fluorophenyl)methyl]-1H-benzimidazol-2-yl]-1'-(2-pyridinyl)-[1,4'-bipiperidin]-4-amine (E)-2-butenedioate (2:3) monohydrate], the ED50 in assay [1] came to 0.63 mg/kg; in assay [2], 2.5 mg/kg. Taken in the same sequence, the figures for `CC(=O)N(CCN1CCC(Nc2nc3ccccc3n2Cc2ccc(F)cc2)CC1)c1ncccn1.O=C(O)/C=C/C(=O)O.O=C(O)/C=C/C(=O)O` [Compound 99, N-[2-[4-[[1-[(4-fluorophenyl)methyl]-1H-benzimidazol-2-yl]amino]-1-piperidinyl]ethyl]-N-(2-pyrimidinyl)acetamide (E)-2-butenedioate (1:2)] were 0.04 mg/kg and 0.63 mg/kg.

For `O=C(c1ccccc1)N(CCN1CCC(Nc2nc3ccccc3n2Cc2ccc(F)cc2)CC1)c1ncccn1` [Compound 100, N-[2-[4-[[1-fluorophenyl)methyl]-1H-benzimidazol-2-yl]amino]-1-piperidinyl]ethyl]-N-(2-pyrimidinyl)benzamide (E)-2-butenedioate (1:2)], the ED50 in assay [1] stood at 0.08 mg/kg; in assay [2], 0.63 mg/kg. Regarding `Fc1ccc(Cn2c(NC3CCN(CCNC(=S)Nc4cccnc4)CC3)nc3ccccc32)cc1` [Compound 104, N-[2-[4-[[1-[(4-fluorophenyl)methyl]-1H-benzimidazol-2-yl]amino]-1-piperidinyl]ethyl]-N'-(3-pyridinyl)thiourea], the ED50 in assay [1] and in assay [2] was 0.63 mg/kg each time.

Take `Fc1ccc(Cn2c(NC3CCN(CCNC(=S)Nc4ccccn4)CC3)nc3ccccc32)cc1` [Compound 105, N-[2-[4-[[1-[(4-fluorophenyl)methyl]-1H-benzimidazol-2-yl]amino]-1-piperidinyl]ethyl]-N'-(2-pyridinyl)thiourea]: the ED50 in assay [1] and in assay [2] was 0.63 mg/kg each time. For the molecule `Nc1cccnc1NC(=S)NCCN1CCC(Nc2nc3ccccc3n2Cc2ccc(F)cc2)CC1` [Compound 107, N-(3-amino-2-pyridinyl)-N'-[2-[4-[[1-[(4-fluorophenyl)methyl]-1H-benzimidazol-2-yl]amino]-1-piperidinyl]ethyl]thiourea], the ED50 in assay [1] stood at 0.16 mg/kg; in assay [2] it was 0.31 mg/kg. Taken in the same sequence, the figures for `O=C(O)/C=C/C(=O)O.O=C(O)/C=C/C(=O)O.O=C(OCCN1CCC(Nc2nc3ccccc3n2Cc2ccc(F)cc2)CC1)c1ccc2ccccc2n1` [Compound 112, [2-[4-[[1-[(4-fluorophenyl)methyl]-1H-benzimidazol-2-yl]amino]-1-piperidinyl]ethyl]-2-quinolinecarboxylate (E)-2-butenedioate (1:2)] were 0.04 mg/kg and 0.63 mg/kg.

`Nc1nccnc1C(=O)NCCN1CCC(Nc2nc3ccccc3n2Cc2ccc(F)cc2)CC1` [Compound 113, 3-amino-N-[2-[4-[[1-[(4-fluorophenyl)methyl]-1H-benzimidazol-2-yl]amino]-1-piperidinyl]ethyl]-2-pyrazinecarboxamide]: the ED50 in assay [1] is 0.04 mg/kg; in assay [2] it was 0.16 mg/kg.

In the case of `O=C(NCCN1CCC(Nc2nc3ccccc3n2Cc2ccc(F)cc2)CC1)c1ccc(Cl)nc1.O=C(O)/C=C/C(=O)O.O=C(O)/C=C/C(=O)O` [Compound 116, 6-chloro-N-[2-[4-[[1-[(4-fluorophenyl)methyl]-1H-benzimidazol-2-yl]amino]-1-piperidinyl]ethyl]-3-pyridinecarboxamide (E)-2-butenedioate (1:2)], the figures for the ED50 in assay [1] and in assay [2] were 0.31 mg/kg and 2.5 mg/kg, respectively.

In the case of `N#CCN1CCC(Nc2nc3ncccc3n2Cc2ccc(F)cc2)CC1` [Intermediate 79], the ED50 in assay [1] worked out at 0.16 mg/kg; in assay [2], 0.63 mg/kg. `CN(C)CCCSc1ccccc1NC(=O)/C=C/c1ccccc1` [cinanserin]: the “prevention of cyanosis of ears and extremities, lesions in the glandular area of the stomach and abnormal gastric distension” value (shortened to “prevention”) in assay [3] was “prevent completely”. Regarding `CN1CCC(=C2c3ccccc3C=Cc3ccccc32)CC1` [cyproheptadine], the “prevention” value in assay [3] is listed as “prevent completely”. On to `CN1C[C@H](CNC(=O)OCc2ccccc2)C[C@@H]2c3cccc4c3c(cn4C)C[C@H]21` [metergoline], for which, in assay [3], the “prevention” value is given as “prevent completely”.

In the case of `CC[C@@H](CO)NC(=O)[C@@H]1C=C2c3cccc4c3c(cn4C)C[C@H]2N(C)C1` [methysergide], the “prevention” value in assay [3] is recorded as “prevent completely”. On to `CN1CCN2c3ccccc3Cc3ccccc3C2C1` (stereo not shown) [mianserin], for which the “prevention” value in assay [3] is given as “prevent completely”.

(Values after patent publication US4556660A, “N-(Bicyclic heterocyclyl)-4-piperidinamines” (Janssen Pharmaceutica N.V., priority 1983, dated 1985).)
